# Results taken from patent US10617734B2, “STAT3 and ERK signal pathway inhibitor comprising mogrosides and analogs thereof” (BEIJING UNIVERSITY OF AGRICULTURE, priority 2014, dated 2020).
# Experiments:
# [1] = tested on: cycle regulatory protein P21; assay: Western Blotting of P21 in A875 cells; type: cell-based; details: human melanoma A875 cells, 10 μmol/L, 24 h
# Protocol: (§1) The STAT3 and ERK signal pathways can regulate cyclins and apoptosis genes, and in order to verify the effects of […] and mogrol, the expression status of downstream genes of STAT3 and ERK was detected, wherein the influences of the three mogrosides and analogs thereof, i.e. Mogrol I E1, Mogrol II A2 and mogrol, on Bcl-2 and P21 proteins in the histiocytic lymphoma U937 cells, human melanoma A875 cells and leukemia cells K562 were determined, respectively.
# (§2) The regulation of Bcl-2 and P21 proteins by mogrosides and analog thereof to the was detected by Western Blotting, specifically: histiocytic lymphoma U937 cells, human melanoma A875 cells and leukemia cells K562 (1×10^6 cells/well) were inoculated into a 6-well culture plate overnight, and 0 and 10 μmol/L of the mogrosides and analogs thereof were added respectively, and kept cultured for 24 h. […]
# (§3) The protein concentration was measured with bovine serum albumin (BSA) as the standard. 50 μg of the total proteins were separated by polyacrylamide gel electrophoresis with 12% SDS, and electrophoretically transferred to a PVDF membrane (polyvinylidene fluoride membrane), and blocked for 1 h by 5% of skim milk (containing 0.1% of Tween 20), and then antibodies P21, Bcl-2 and β-actin were added, wherein the primary antibody was incubated at 4° C. overnight (β-actin was used as reference loading amount); the membrane was washed for 3 times with TBS-T, 5 min each time; secondary antibody marked by horseradish peroxidase (HRP) was added for incubation at room temperature for 1 h, the membrane was washed with rinse solution (TBS-T) for 3 times, 10 min each time, and then ECL was added for incubation in dark for 5 min, and subsequently, a fluorescence imaging analyzer was used for image development and scanning analysis.
# [2] = tested on: human melanoma A875 cells; assay: MTT colorimetric experiment, cell growth inhibition; type: cell-based; details: melanoma A875 cells, 0.1, 1, 10, 100, 200 and 250 μmol/L, MTT after 24 h
# Protocol: (§4) MTT colorimetric experiments were performed after 24 h, respectively: prior to the finish of each experiment, 15 μl of MTT solution in a concentration of 5 mg/ml was added to each well, and the culture was continued in dark at 37° C. for 4 h, then 150 μl of DMSO was added to each well and oscillating in a shaker for 10 min, and then the residue was placed in a microplate reader to detect the optical density OD) at 490 nm, and the inhibition rate was calculated according to the following formula: cell growth inhibition rate (control group OD490—test group OD490)/control group OD490×100%.
# lymphoma U937 cells = assay: as above; type: cell-based; details: U937 cells, 0.1, 1, 10, 100, 200 and 250 μmol/L, MTT after 24 h
# Protocol: as §4
# [3] = tested on: anti-apoptotic protein Bcl-2; assay: Western Blotting of Bcl-2 in A875 cells; type: cell-based; details: human melanoma A875 cells, 10 μmol/L, 24 h
# Protocol: as §1, §2, §3
# [4] = tested on: phosphorylated ERK1/2 (P-ERK1/2); assay: Western Blotting of phosphorylated ERK1/2 in A875 cells; type: cell-based, human; details: melanoma A875 cells, 10 μmol/L, 24 hours
# Protocol: (§5) The inhibition of the STAT3 and ERK signal pathways achieved by Mogroside I E1, Mogroside II A2 and mogrol was detected by Western Blotting, specifically:
# Group 2: human melanoma A875 cells (1×10^6 cells/well) were inoculated into a 6-well culture plate for staying overnight, and 0 and 10 μmol/L of Mogroside I E1, Mogroside II A2 and mogrol were added respectively, and the culture was continued for 24 hours;
# (§6) After the termination of the cell culture, the culture solution was removed, and the residue was washed with PBS (0.01 mol/L, pH 7.4), and then a cell lysis solution containing protease inhibitors was added at an amount of 50 μl/well, and the mixture was placed in an ice bath for lysis at 4° C. for 30 min and then centrifuged at 14000 r/min for 10 min, and then total proteins were obtained from the supernatant;
# (§7) The protein concentrations were measured with bovine serum albumin (BSA) as the standard. 50 μg of the total proteins was separated by polyacrylamide gel electrophoresis with 12% […], electrophoretically transferred to a PVDF membrane (polyvinylidene fluoride membrane), and blocked for 1 h by 5% of skim milk (containing 0.1% of Tween 20), and then antibodies p-STAT3 (Tyr705) and p-Erk1/2 as well as β-actin were added, and the primary antibody was incubated at 4° C. overnight (β-actin was used as reference in loading amount); the membrane was washed for 3 times with TBS-T, 5 min each time; secondary antibody marked by horseradish peroxidase (HRP) was added for incubation at room temperature for 1 h, the membrane was washed for 3 times with a wash solution (TBS-T), 10 min each time, and then ECL was added for incubation in dark for 5 min, and subsequently, a fluorescence imaging analyzer was used for image development and scanning analysis, and the results of Western Blotting detection are shown in FIGS. 4 to 6.
# [5] = tested on: anti-apoptotic protein Bcl-2; assay: Western Blotting of Bcl-2 in U937 cells; type: cell-based; details: 10 μmol/L, 24 h
# Protocol: as §1, §2, §3
# [6] = tested on: phosphorylated ERK1/2 (P-ERK1/2); assay: Western Blotting of phosphorylated ERK1/2 in K562 cells; type: cell-based, human; details: leukemia cells K562, 10 μmol/L, 24 hours
# Protocol: as §5
# (§8) Group 3: leukemia cells K562 (1×10^6 cells/well) were inoculated into a 6-well culture plate for staying overnight, and 0 and 10 μmol/L of Mogroside I E1 Mogroside II A2 and mogrol were added respectively, and the culture was continued for 24 hours;
# as §6, §7
# [7] = tested on: cycle regulatory protein P21; assay: Western Blotting of P21 in U937 cells; type: cell-based; details: 10 μmol/L, 24 h
# Protocol: as §1, §2, §3
# leukemia cells K562 [8] = assay: Cell cycle distribution, PI staining, flow cytometer; type: cell-based, human; details: leukemia cells K562, 10 μmol/L, 24 h
# Excerpt: The influences of Mogroside I E1, Mogroside II A2 and mogrol on the cell cycle distribution of the histiocytic lymphoma U937 cells, the human melanoma A875 cells and the leukemia cells K562.
# The cell cycle arrest achieved by drugs is an important approach to the inhibition of cancer cell proliferation.
# leukemia cells K562 [9] = assay: MTT colorimetric experiment, cell growth inhibition; type: cell-based, human; details: leukemia cells K562, 0.1, 1, 10, 100, 200 and 250 μmol/L, MTT after 24 h
# Protocol: as §4
# [10] = tested on: phosphorylated STAT3 (P-STAT3, Tyr705); assay: Western Blotting of phosphorylated STAT3 in K562 cells; type: cell-based, human; details: leukemia cells K562, 10 μmol/L, 24 hours
# Protocol: as §5, §8, §6, §7
# [11] = tested on: phosphorylated STAT3 (P-STAT3, Tyr705); assay: Western Blotting of phosphorylated STAT3 in U937 cells; type: cell-based; details: 10 μmol/L, 24 hours
# Protocol: as §5
# Group 1: histiocytic lymphoma U937 cells (1×10^6 cells/well) were inoculated into a 6-well culture plate for staying overnight, and 0 and 10 μmol/L of Mogroside I E1, Mogroside II A2 and mogrol were added respectively, and the culture was continued for 24 hours;
# as §6, §7
compound,measurement,setting,value
C[C@H](CC[C@@H](O)C(C)(C)O)[C@H]1CC[C@@]2(C)[C@@H]3CC=C4[C@@H](CC[C@H](O)C4(C)C)[C@]3(C)[C@H](O)C[C@]12C [mogrol],expression of cycle regulatory protein P21,[1],significantly up-regulated
same,cell growth inhibition rate,[2],inhibitory effect on the proliferation
same,cell growth inhibition rate,lymphoma U937 cells,inhibitory effect on the proliferation
same,expression of anti-apoptotic protein Bcl-2,[3],significantly down-regulated
same,expression level of phosphorylated ERK1/2 (P-ERK1/2),[4],significantly decreased
same,expression of anti-apoptotic protein Bcl-2,[5],significantly down-regulated
same,expression level of phosphorylated ERK1/2 (P-ERK1/2),[6],significantly decreased
same,expression of cycle regulatory protein P21,[7],significantly up-regulated
same,cell cycle distribution (cell cycle arrest),leukemia cells K562 [8],arrested
same,cell growth inhibition rate,leukemia cells K562 [9],inhibitory effect on the proliferation
same,expression level of phosphorylated STAT3 (P-STAT3),[10],significantly decreased
same,expression level of phosphorylated STAT3 (P-STAT3),[11],significantly decreased
